Tests used:
[1] = system: OSR1-GFP reporter iPS cells; assay: Induction of differentiation into intermediate mesoderm cells (novel induction method 1), flow cytometry using OSR1 (GFP) expression; type: cell-based, human; conditions: novel induction method 1: 2 days 3 micromolar CHIR99021 + 10 micromolar Y-27632, then 8 days 1 micromolar retinoic acid derivative
Method: (§1) Human iPS cells (201B7) provided by Dr. Yamanaka at Kyoto University were cultured by the known method (Takahashi, K. et al., Cell 131: 861-872). Subsequently, a GFP-PGK-Neo cassette was inserted into a site downstream of the OSR1 initiation codon of a BAC clone (RP11-458J18) (BACPAC RESOURCES) using pRed/ET (Gene Bridges GmbH), so as to prepare a OSR1-GFP BAC transgene. The resulting modified BAC clone was introduced into the human iPS cell and the OSR1-GFP reporter iPS cell line expressing GFP in conjunction with the expression of endogenous OSR1 was established.
(§2) The above OSR1-GFP reporter iPS cells were cultured to confluence on a 10-cm dish using SNL cells as feeder cells (McMahon, A. P. and Bradley, A., 1990, Cell 62; 1073-1085). A CTK solution was added to the cells for dissociation, the feeder cells were removed, and the iPS cells were dispersed into single cells with the addition of Accutase.
Subsequently, the iPS cells were suspended in a DMEM/F12 medium containing Glutamax, 2% FBS, and PenStrep, and 10 micromolar Y-27632 and 3 micromolar CHIR99021 were added thereto. Subsequently, the cell suspension was transferred to a dish coated with 0.1% gelatin, and culture was conducted for 2 days. […]
After the cell culture had been conducted for 8 days, the cells were analyzed by flow cytometry (FACS) using OSR1 expression as an indicator.

[2] = system: OSR1-GFP reporter iPS cells; assay: Induction of differentiation into intermediate mesoderm cells (novel induction methods 2 and 3), flow cytometry using OSR1 (GFP) expression; time course; type: cell-based, human; conditions: for time at which growth of OSR1 positive cells had plateau after the medium change: cell numbers measured 3, 5, 8 or 12 days after change to medium with 1 micromolar retinoic acid derivative
Method: as §1, §2
Subsequently, the iPS cells were suspended in a DMEM/F12 medium containing Glutamax, 2% FBS, and PenStrep, and a combination of (1) 10 micromolar Y-27632 (ROCK inhibitor), 3 micromolar CHIR99021, and 1 micromolar AM580 or (2) 10 micromolar Y-27632 (ROCK inhibitor), 3 micromolar CHIR99021, and 1 micromolar TTNPB was added thereto. Subsequently, the cell suspension was transferred to a dish coated with 0.1% gelatin, and culture was conducted for 2 days.
Thereafter, the medium was removed, the culture product was washed in PBS, and the iPS cells were then cultured for an additional 8 days (novel induction method 2) or 3 days (novel induction method 3) in a medium prepared by adding 1 micromolar AM580 or 1 micromolar TTNPB to a DMEM/F12 medium containing 2-mercaptoethanol, Glutamax, 10% KOCKOUT SR, 0.1 mM MEM NEAA, and PenStrep. During culture, the medium was exchanged with fresh medium once every 3 days in the case of the novel induction method 2.
After the cell culture had been conducted for 8 or 3 days, the cells were analyzed by flow cytometry (FACS) using OSR1 expression as an indicator.
Next, the length of time from medium change was studied. Briefly, number of OSR1 positive cells and total cells were measured at 3 days (novel induction method 3), 5 days, 8 days (novel induction method 2) or 12 days after the medium was changed to a medium prepared by adding 1 micromolar AM580 or 1 micromolar TTNPB to a DMEM/F12 medium containing 2-mercaptoethanol, Glutamax, 10% KOCKOUT SR, 0.1 mM MEM NEAA, and PenStrep (FIG. 4). The growth of OSR1 positive cells had plateau at 8 day after the medium change.

[3] = system: iPS cell clones (201B6, 253G1, 263G4 and 585A1) and ES cell clone (KhES1, KhES3 and H9); assay: Level of OSR1 expression after differentiation from each iPS cell clone or ES clone (novel induction method 3); type: cell-based, human
Excerpt: White bar indicates the result using AM580. Black bar indicates the result using TTNPB. Grey bar indicate the result of conventional method without AM580 and TTNPB.

[4] = system: OSR1-GFP reporter iPS cells; assay: Long term culture of OSR1 (GFP) positive cells, RT-PCR and immunostaining; type: cell-based, human; conditions: novel induction method 3 with 1 micromolar TTNPB, then 8 days with 100 ng/ml BMP7, 100 ng/ml Wnt3a on Matrigel
Method: The above OSR1-GFP reporter iPS cells were dissociated into single cells in a manner similar to Example 2. Subsequently, the iPS cells were suspended in a DMEM/F12 medium containing Glutamax, 2% FBS, and PenStrep, and a combination of 10 micromolar Y-27632, 3 micromolar CHIR99021, and 1 micromolar TTNPB was added thereto. Subsequently, the cell suspension was transferred to a dish coated with 0.1% gelatin, and culture was conducted for 2 days. Thereafter, the medium was removed, the culture product was washed in PBS, and the iPS cells were then cultured for an additional 3 days (novel induction method 3) in a medium prepared by adding 1 micromolar TTNPB to a DMEM/F12 medium containing 2-mercaptoethanol, Glutamax, 10% KOCKOUT SR, 0.1 mM MEM NEAA, and PenStrep. After isolating GFP positive cells from obtained cells with flow cytometer, the GFP positive cells were transferred to a dish coated with Matrigel (BD), and cultured in DMEM/F12 medium containing 10 micromolar Y-27632, 100 ng/ml BMP7, 100 ng/ml Wnt3a, 2-mercaptoethanol, Glutamax, 10% KOCKOUT SR, 0.1 mM MEM NEAA, and PenStrep for 8 days. During culture, the medium was exchanged with fresh medium once every 3 days. Obtained cells were analyzed with RT-PCR (FIG. 7A) and immunostaining (FIG. 7B). […]

[5] = system: OSR1-GFP reporter iPS cells; assay: Suspention culture of OSR1 (GFP) positive cells to form sphere, immunostaining; type: cell-based, human; conditions: novel induction method 3 with 1 micromolar TTNPB, then suspention culture on low cell adhesion plate
Method: The above OSR1-GFP reporter iPS cells were dispersed into single cells in a manner similar to Example 2. Subsequently, the iPS cells were suspended in a DMEM/F12 medium containing Glutamax, 2% FBS, and PenStrep, and a combination of 10 micromolar Y-27632, 3 micromolar CHIR99021, and 1 micromolar TTNPB was added thereto. Subsequently, the cell suspension was transferred to a dish coated with 0.1% gelatin, and culture was conducted for 2 days. Thereafter, the medium was removed, the culture product was washed in PBS, and the iPS cells were then cultured for an additional 3 days (novel induction method 3) in a medium prepared by adding 1 micromolar TTNPB to a DMEM/F12 medium containing 2-mercaptoethanol, Glutamax, 10% KOCKOUT SR, 0.1 mM MEM NEAA, and PenStrep. After isolating GFP positive cells from obtained cells with flow cytometer, 1×10^5 GFP positive cells were transferred to a low cell adhesion plate (PrimeSurface, Sumitomo Bakelite co.), and cultured in DMEM/F12 medium containing 10 micromolar Y-27632, 2-mercaptoethanol, Glutamax, 10% KOCKOUT SR, 0.1 mM MEM NEAA, and PenStrep in suspention to form cell sphere. During culture, the medium was exchanged with fresh medium once every 3 days.
Obtained cells were analyzed with immunostaining (FIG. 8).

[6] = system: OSR1-GFP reporter iPS cells; assay: Organ culture of OSR1 (GFP) positive cells with mouse metanephric cells, immunostaining; type: cell-based, human; conditions: novel induction method 3 with 1 micromolar TTNPB, then mixed with E11.5 mouse metanephric cells, 7 days floating culture
Method: The above OSR1-GFP reporter iPS cells were dissociated into single cells in a manner similar to Example 2. Subsequently, the iPS cells were suspended in a DMEM/F12 medium containing Glutamax, 2% FBS, and PenStrep, and a combination of 10 micromolar Y-27632, 3 micromolar CHIR99021, and 1 micromolar TTNPB was added thereto. Subsequently, the cell suspension was transferred to a dish coated with 0.1% gelatin, and culture was conducted for 2 days. Thereafter, the medium was removed, the culture product was washed in PBS, and the iPS cells were then cultured for an additional 3 days (novel induction method 3) in a medium prepared by adding 1 micromolar TTNPB to a DMEM/F12 medium containing 2-mercaptoethanol, Glutamax, 10% KOCKOUT SR, 0.1 mM MEM NEAA, and PenStrep. After isolating GFP positive cells from obtained cells with flow cytometer, 1×10^4 GFP positive cells were mixed with 1×10^5 mouse metanephric cells obtained from E11.5 mouse embryo on a low cell adhesion plate (PrimeSurface). The next day, cell sphere was transferred on the Isopore™ Membrane Filters (Merck Millipore) floated on Improve MEM medium containing 10 micromolar Y-27632, 10% FBS and PenStrep. During culture, the medium was exchanged with fresh medium once every 3 days. Obtained cells were analyzed with immunostaining at 7 days after floating culture (FIG. 9).

[7] = system: intranuclear receptor of retinoic acid (RAR); assay: Activity through retinoic acid pathway compared with ATRA; conditions: stated as effect of the invention, no test described
[8] = Cytotoxicity compared with ATRA; type: cell-based; conditions: stated as effect of the invention, no test described
[9] = novel induction method 2: 2 days 3 micromolar CHIR99021 + 10 micromolar Y-27632 + 1 micromolar retinoic acid derivative, then 8 days 1 micromolar retinoic acid derivative
[10] = novel induction method 3: 2 days 3 micromolar CHIR99021 + 10 micromolar Y-27632 + 1 micromolar retinoic acid derivative, then 3 days 1 micromolar retinoic acid derivative

SMILES | induction of OSR1-positive cells (FACS) [1] | time at which growth of OSR1 positive cells had plateau after the medium change [2] [days] | induction of OSR1-positive cells (FACS) [2, 9] | induction of OSR1-positive cells (FACS) [2, 10] | differentiation of further iPS and ES cell clones into intermediate mesoderm cells [3] | further differentiation of obtained OSR1 positive cells [4] | luminal structure formation from OSR1 positive cells by forming sphere [5] | luminal structure formation from OSR1 positive cells by mixed culture with organ [6] | activity relative to all-trans retinoic acid (ATRA) [7] | cytotoxicity relative to ATRA [8]
C/C(=C\c1ccc(C(=O)O)cc1)c1ccc2c(c1)C(C)(C)CCC2(C)C [TTNPB, 4-[(1E)-2-(5,6,7,8-tetrahydro-5,5,8,8-tetramethyl-2-naphthalenyl)-1-propen-1-yl]-benzoic acid] | OSR1-positive cells were successfully induced | 8 | OSR1-positive cells were successfully induced | OSR1-positive cells were successfully induced | could be differentiated into intermediate mesoderm cells | could be further differentiated into renal precursor cells | luminal structure could be constructed | luminal structure could be constructed | higher than that of all-trans retinoic acid (ATRA) | lower cytotoxicity compared with ATRA
CC1(C)CCC(C)(C)c2cc(C(=O)Nc3ccc(C(=O)O)cc3)ccc21 [AM580, 4-[[(5,6,7,8-tetrahydro-5,5,8,8-tetramethyl-2-naphthalenyl)carbonyl]amino]-benzoic acid] | OSR1-positive cells were successfully induced | 8 | OSR1-positive cells were successfully induced | OSR1-positive cells were successfully induced | could be differentiated into intermediate mesoderm cells |  |  |  | higher than that of all-trans retinoic acid (ATRA) | lower cytotoxicity compared with ATRA
